Laboratory results reported in the NIST ThermoML archive (doi:10.1016/j.jct.2012.02.011).
Values joined by “and” are separate entries in the source; they are usually repeats but may differ in a detail not shown here. Identical values can stand only once. ± gives the expanded uncertainty stated by the source.

Assays:
[1] = relative permittivity at various frequencies (dimensionless); conditions: 101.3 kPa, Liquid, Frequency=3 MHz
[2] = relative permittivity at various frequencies (dimensionless); xn = mol fraction of the nth substance listed; conditions: 101.33 kPa, Liquid, Frequency=3 MHz, OH-301

| Structure (SMILES) | relative permittivity ([1]; 293.15 K, OH-301) | relative permittivity ([1]; 298.15 K, OH-301) | relative permittivity ([1]; 303.15 K, OH-301) | relative permittivity ([1]; 308.15 K, OH-301) | relative permittivity ([1]; 313.15 K, OH-301) | relative permittivity ([2]; 293.15 K, x1 = 1) | relative permittivity ([2]; 298.15 K, x1 = 1) | relative permittivity ([2]; 303.15 K, x1 = 1) | relative permittivity ([2]; 308.15 K, x1 = 1) | relative permittivity ([2]; 313.15 K, x1 = 1) | also measured |
| --- | --- | --- | --- | --- | --- | --- | --- | --- | --- | --- | --- |
| CCCCOCCO [2-butoxyethan-1-ol] | 9.78 ± 0.04 | 9.35 ± 0.04 | 8.88 ± 0.04 | 8.39 ± 0.04 | 7.91 ± 0.04 |  |  |  |  |  |  |
| CCOCCO [2-ethoxyethan-1-ol] | 14.25 ± 0.04 | 14.03 ± 0.04 | 13.76 ± 0.04 | 13.44 ± 0.04 | 13.07 ± 0.04 |  |  |  |  |  |  |
| COCCO [2-methoxyethan-1-ol] | 17.38 ± 0.04 | 16.95 ± 0.04 and 16.96 ± 0.04 | 16.56 ± 0.04 | 16.16 ± 0.04 | 15.77 ± 0.04 |  |  |  |  |  |  |
| COCCO [2-methoxyethan-1-ol] + O=[N+]([O-])c1ccccc1 |  |  |  |  |  |  |  |  |  |  | relative permittivity ([2]; 293.15 K, x2 = 0): 17.38 ± 0.04; relative permittivity ([2]; 298.15 K, x2 = 0): 16.96 ± 0.04; relative permittivity ([2]; 303.15 K, x2 = 0): 16.56 ± 0.04; relative permittivity ([2]; 308.15 K, x2 = 0): 16.16 ± 0.04; relative permittivity ([2]; 313.15 K, x2 = 0): 15.77 ± 0.04 |
| CCCOCCO [2-propoxyethanol] | 11.76 ± 0.04 | 11.5 ± 0.04 | 11.19 ± 0.04 | 10.91 ± 0.04 | 10.62 ± 0.04 |  |  |  |  |  |  |
| O=[N+]([O-])c1ccccc1 [nitrobenzene] |  |  |  |  |  |  |  |  |  |  | relative permittivity ([1]; 293.15 K, OH-301 Stainless Steel Cell): 35.91 ± 0.06; relative permittivity ([1]; 298.15 K, OH-301 Stainless Steel Cell): 34.78 ± 0.04; relative permittivity ([1]; 303.15 K, OH-301 Stainless Steel Cell): 33.84 ± 0.05; relative permittivity ([1]; 308.15 K, OH-301 Stainless Steel Cell): 33.13 ± 0.05; relative permittivity ([1]; 313.15 K, OH-301 Stainless Steel Cell): 32.66 ± 0.04 |
| O=[N+]([O-])c1ccccc1 [nitrobenzene] + CCCCOCCO |  |  |  |  |  | 35.91 ± 0.06 | 34.78 ± 0.06 | 33.84 ± 0.05 | 33.13 ± 0.05 | 32.66 ± 0.04 |  |
| O=[N+]([O-])c1ccccc1 [nitrobenzene] + CCCOCCO |  |  |  |  |  | 35.91 ± 0.06 | 34.78 ± 0.06 | 33.84 ± 0.05 | 33.13 ± 0.05 | 32.66 ± 0.04 |  |
| O=[N+]([O-])c1ccccc1 [nitrobenzene] + CCOCCO |  |  |  |  |  | 35.91 ± 0.06 | 34.78 ± 0.06 | 33.84 ± 0.05 | 33.13 ± 0.05 | 32.66 ± 0.04 |  |
